The values below come from paper PMC5988308, “Rhodanine derivatives as potent anti-HIV and anti-HSV microbicides” (PLoS ONE, 2018).

Where two headings read alike, the source gives them in different places.

In one data set the test system is HSV-2. Nature of the data set: HSV-2 plaque reduction assay on Vero cells. It is filed as cell-based. To be noted: Vero cells. Here is the method:
(§1) Clinical isolates of HSV-1 and HSV-2 were kindly provided by Prof. M. Pistello, University of Pisa, Italy. HSV-1 and HSV-2 strains were propagated and titrated by plaque assay on Vero cells. A HSV-2 strain with phenotypic resistance to acyclovir was generated by serial passage in the presence of increasing concentrations of acyclovir, as previously described.
(§2) The effect of the rhodanine derivatives on HSV infection was evaluated by plaque reduction assay. Vero cells were pre-plated 24 h in advance in 24-well plates at a density of […]. Increasing concentrations of compounds were mixed with HSV-2 (MOI 0.001 pfu/cell) or HSV-2 acyclovir resistant (MOI 0.001) or HSV-1 (MOI 0.0005) or and incubated for 1 hour at 37°C. The mixtures were subsequently added to the cells, which were then incubated at 37°C for 2 h. The virus inoculum was then removed and the cells washed and overlaid with a medium containing 1.2% methylcellulose (Sigma). After further incubation at 37°C for 24 h (HSV-2 and HSV-2 R Acy) or 48 h (HSV-1), cells were fixed and stained with 0.1% crystal violet in 20% ethanol and viral plaques counted. The effective concentration producing 50% reduction (EC50) and 90% reduction (EC90) in plaque formation was determined using Prism software by comparing drug-treated with wells treated with medium and solvent. The selectivity index (SI) was calculated by dividing the CC50 by the EC50 value.
(§3) All results are presented as the mean values from three independent experiments. The EC50 values for inhibition curves were calculated by regression analysis using the software GraphPad Prism (GraphPad Software, San Diego, California, U.S.A.) by fitting a variable slope-sigmoidal dose–response curve. Acyclovir was purchased from Sigma Aldrich (Milan, Italy).

The nature of data set [1]: Vero cell viability (MTS assay). The conditions noted are these: African green monkey. The format is cell-based. Here is the method: African green monkey fibroblastoid kidney cells (Vero, ATCC CCL-81) were grown as monolayers in Eagle's minimal essential medium (MEM) (Gibco/BRL, Gaithersburg, MD) supplemented with 10% heat inactivated fetal calf serum (FCS) and 1% antibiotic-antimycotic solution (Zell Shield, Minerva Biolabs GmbH, Berlin, Germany).
Cell viability was measured using the MTS [3-(4,5-dimethylthiazol-2-yl)-5-(3-carboxymethoxyphenyl)-2-(4-sulfophenyl)-2H-tetrazolium] assay. Cell cultures were seeded in 96-well plates were incubated with different concentrations of compounds in triplicate under the same experimental conditions described for the antiviral assays. Cell viability was determined using the CellTiter 96 Proliferation Assay Kit (Promega, Madison, WI, USA) according to the manufacturer's instructions. Absorbances were measured using a Microplate Reader (Model 680, BIORAD) at 490 nm. The effect on cell viability at different concentrations of the compound was expressed as a percentage, by comparing absorbances of treated cells with those of cells incubated with culture medium and equal volumes of vehicle.

A further data set has as its system HSV-1. Nature of the data set: HSV-1 plaque reduction assay on Vero cells. It is filed as cell-based. To be noted: Human alphaherpesvirus 1, Vero cells, read-out: HSV-1 EC50. Here is the method: as §1, §2, §3
The subject of data set [2] is HSV-2 acyclovir resistant. Nature of the data set: HSV-2 acyclovir resistant plaque reduction assay on Vero cells. The format is cell-based. To be noted: Human alphaherpesvirus 2, Vero, read-out: HSV-2 acyclovir resistant EC50. As to the method:
as §1
as §2, with “The virus inoculum was then removed and the cells washed and overlaid with a medium containing 1.2% methylcellulose (Sigma).” left out, “The effective concentration producing 50% reduction (EC50) and 90% reduction (EC90) in plaque formation was determined using Prism software by comparing drug-treated with wells treated with medium and solvent.” left out
All results are presented as the mean values from three independent experiments. The EC50 values for inhibition curves were calculated by regression analysis using the software GraphPad Prism (GraphPad Software, San Diego, California, U.S.A.) by fitting a variable slope-sigmoidal dose–response curve. […]
Background: In a plaque reduction assay, fewer plaques than in the control indicate reduced infectivity or spread.

For the next data set, the system named is NL4.3 HIV strain. Nature of the data set: Antiviral activity in microbicide gel formulation, transwell experiment, TZM-bl cells. The format is cell-based, HIV-1. The conditions noted are these: Human immunodeficiency virus 1, gel at 50%. Here is the method:
All the semi-solid formulations were prepared adding at the pre-gel solution reported above hydroxyethyl cellulose (HEC) (1.8% w/v). In all samples, 0.2% v/v propionic acid was added to aqueous solution in order to preserve form bacteria and mold contamination. HEC was dispersed in the pre-gel solution at 25°C under magnetic stirring, overnight.
Antiviral activity of compound 2 on NL4.3 HIV strain was evaluated also in a gel formulation. To reproduce more physiological conditions, TZM-bl cells were seeded into transwells and the gel was applied onto the cell monolayer at 50% fixed concentration with serial drug dilutions as previously described. Briefly, 4x10^4 TZM-bl cells were plated into each transwell apical chamber of a 24-well plate (pore size 3μm and diameter 6,5 mm, Corning) containing medium in the bottom plate and cultured overnight. For efficacy testing, 60 TCID50 of virus was added to each apical well in the presence of 100 μL of compound 2 gel, tenofovir gel or blank gel at the final drug concentrations of 25μM, 10 μM and 5 μM. Inhibition of infection was determined as previously based on deviations from blank gel.

Data set [3] relates to HIV-1 AD8 (CCR5-tropic strain). Description: Antiviral activity on TZM-bl cells infected with HIV-1 AD8 (CPRG assay). The format is cell-based. The conditions noted are these: for alteration of antiviral activity when pre-incubated with serum: HIV-1 laboratory strains. As to the method:
(§4) The human TZM-bl indicator cell line (obtained from the NIH AIDS reagents program, cat. Nr 8129 (www.aidsreagent.org) and maintained at 37°C and 5% CO2 in Dulbecco’s modified Eagle’s medium (DMEM) medium containing 10% fetal bovine serum, 50 μg/mL penicillin, and 50 μg/mL streptomycin. The HIV-1 laboratory strains NL(AD8) (NIH AIDS reagents program, cat.nr 11346), NL4.3 (NIH AIDS reagents program, cat. Nr. 114) were titrated as previously reported. Briefly, serial 5-fold dilutions of each virus were made in quadruplicate wells in 96-well culture plates, in a total volume of 100 μL of growth medium (DMEM), for a total of 8 dilution steps. Freshly trypsinized cells (20,000 cells in 100 μL of growth medium containing 75 μg/mL DEAE-dextran) were added to each well, and the plates were incubated at 37°C in a humidified 5% CO2-95% air environment. After 48 h of incubation, the medium was removed and viral infection was quantified using a β-galactosidase (CPRG) assay (Roche). Twenty thousand TZM-bl cells/well were seeded in 96-well plates in complete DMEM supplemented with 30 μg/mL DEAE-dextran (Sigma-Aldrich). Three hundred times the 50% tissue culture infective dose (TCID50)/mL of each strain was pretreated for 1 h at 37°C with six serial dilutions ([…] to 3.2 nM) of each compound and then added to the cells, as previously described. Vehicle (0.1% dimethyl sulfoxide [DMSO])-treated cells served as a negative control. […] After 2 days, viral infection was quantified using a CPRG assay (Roche). The inhibitory curves were fitted by nonlinear regression, allowing for the calculation of the 50% inhibitory concentration (IC50) using the Prism software. To evaluate the cell toxicity of the compounds, the metabolic XTT [2,3-bis-(2-methoxy-4-nitro-5-sulfophenyl)-2H-tetrazolium-5-carboxanilide] test (Sigma-Aldrich) was performed according to the manufacturer’s instructions.

Data set [4] relates to HIV-1 NL4.3 (CXCR4-tropic strain). Description: Antiviral activity on TZM-bl cells infected with HIV-1 NL4.3 (CPRG assay). The format is cell-based. As to the method:
After 48 h of incubation, the medium was removed and viral infection was quantified using a β-galactosidase (CPRG) assay (Roche). Twenty thousand TZM-bl cells/well were seeded in 96-well plates in complete DMEM supplemented with 30 μg/mL DEAE-dextran (Sigma-Aldrich). […] Vehicle (0.1% dimethyl sulfoxide [DMSO])-treated cells served as a negative control. […] After 2 days, viral infection was quantified using a CPRG assay (Roche). […] To evaluate the cell toxicity of the compounds, the metabolic XTT [2,3-bis-(2-methoxy-4-nitro-5-sulfophenyl)-2H-tetrazolium-5-carboxanilide] test (Sigma-Aldrich) was performed according to the manufacturer’s instructions.

Data set [5] has as its system HIV-1 AD8. Nature of the data set: Inhibition of antiviral activity by fetal bovine serum (TZM-bl, AD8). It is filed as cell-based. To be noted: FBS 0% to 10%. As to the method: To evaluate the binding of compounds to plasma proteins also in a cell based assay, the infection with the HIV laboratory strain AD8 was performed in absence or in presence of different concentrations of Fetal Bovine Serum (FBS): 2%, 5% and 10%. The representative compound 2 was pre-incubated at different concentrations ranging from 10 μM to 3.2 nM with 300 TCID50 /mL of AD8 in DMEM supplemented with 50 μg/mL penicillin, 50 μg/mL streptomycin, 30 μg/mL DEAE-dextran and FBS at the concentration described above. Maraviroc was used as control. After an hour the mixture was added to 40.000 TZM-bl cells/well plated in a 96-well plate and after two days the infection was quantified using a CPRG assay (Roche) as previously described.

The test system of data set [6] is HIV-1 AD8. Description: Inhibition of antiviral activity by purified bovine serum albumin (TZM-bl, AD8). It is filed as cell-based. Here is the method: To confirm the binding of compound 2 to serum albumin, infection was performed in presence of different concentrations of purified bovine serum albumin (BSA, Sigma Aldrich) starting from the concentration that is usually present in FBS serum (35 mg/mL, 1X) and increasing to a five-fold concentration (175 mg/mL) up to a ten-fold concentration (350 mg/mL). […] After one hour, the mixture was added to 40.000 TZM-bl cells/well plated in DMEM supplemented with 50 μg/mL penicillin, 50 μg/mL streptomycin, 30 μg/mL DEAE-dextran and 10% FBS in a 96-well plate. After two days the infection was evaluated through a CPRG assay.

A further data set relates to HSA. To be noted: cited from earlier work.
The nature of data set [7]: Cytotoxicity on TZM-bl cells (XTT test). To be noted: human, read-out: Citotoxicity (TZM-bl cells) CC50. It is filed as cell-based. Here is the method:
as §4

A further data set has as its system HIV-1 NL 4.3 WT. Description: Antiviral activity on human CD4+ T lymphocytes, NL4.3 WT. The format is cell-based. To be noted: Human immunodeficiency virus 1, read-out: NL 4.3 WT EC50. Here is the method: (§5) The antiviral activity and cytotoxicity of compounds 2, 9e and 9f was tested also on freshly purified human CD4^+ T lymphocytes obtained from healthy blood donors (informed consent available) as described previously on HIV laboratory strain NL4.3 and AD8 [33, 34].

In a further data set the test system is HIV-1 AD8 WT. Nature of the data set: Antiviral activity on human CD4+ T lymphocytes, AD8 WT. It is filed as cell-based. To be noted: Human immunodeficiency virus 1, read-out: AD8 WT EC50. Here is the method:
as §5

For data set [8], the system named is recombinant HIV-1 integrase Q148H, G140S. Description: Antiviral activity on human CD4+ T lymphocytes, integrase mutant Q148H, G140S. To be noted: Human immunodeficiency virus 1, read-out: Q148H, G140S EC50. The format is cell-based.
The subject of data set [9] is recombinant HIV-1 integrase Y143R. Description: Antiviral activity on human CD4+ T lymphocytes, integrase mutant Y143R. It is filed as cell-based. To be noted: Human immunodeficiency virus 1, read-out: Y143R EC50.

Take `Nc1nc2c(ncn2COCCO)c(=O)[nH]1` [ACV, Acyclovir, reference compound]: the EC50 in the data set with HSV-2 (Human alphaherpesvirus 2, plaque reduction, compound pre-incubated with virus 1 h at 37°C, read-out: HSV-2 EC50) is 0.622 ± 0.0211 µM; in the data set with HSV-1 it was 0.168 ± 0.0413 µM; in data set [2], 31.9 ± 1.16 µM. Moreover, the “SI (CC50/EC50), HSV-2” value with HSV-2 came to 1177. The figures for the CC50 in data set [1] (Citotoxicity (Vero cells) CC50), in data set [1] (Vero cell CC50 (HSV-1)) and in data set [1] (Vero cell CC50 (HSV-2 acyclovir resistant rows)) were 732 ± 46.2 µM, 698 ± 72.5 µM and 732 ± 46.2 µM, respectively.

For `C[C@H](Cn1cnc2c(N)ncnc21)OCP(=O)(O)O` [tenofovir, reference compound], the EC50 with NL4.3 HIV strain was found to be 4.5 µM.

Regarding maraviroc [reference compound], the “alteration of antiviral activity when pre-incubated with serum” value in data set [3] (TZM-bl cells) is “did not show any alteration of antiviral activity”. Also, the half-maximal effective concentration (EC50) in data set [3] (TZM-bl cells, pre-incubation in complete medium containing fetal bovine serum (FBS), read-out: AD8 EC50 a) was 0.0255 ± 0.003 µM; in data set [3] (TZM-bl cells, pre-incubation with virus without serum, read-out: AD8 EC50), 0.0367 ± 0.007 µM; in data set [4] (TZM-bl cells, pre-incubation in complete medium containing fetal bovine serum (FBS), read-out: NL4-3 EC50 a) it was above 20 µM; in data set [4] (TZM-bl cells, pre-incubation with virus without serum, read-out: NL4-3 EC50), above 20 µM. Also, in the data set on HIV-1 AD8 [5], the “effect of FBS concentration on antiviral activity” value is on record as “did not change”. For the same compound, the “influence of BSA on antiviral activity, any concentration of BSA” value in the data set on HIV-1 AD8 [6] is listed as “not influenced”.

In the case of `CC(=O)Nc1ccc(O)cc1` [Paracetamol], the Kd in the data set on HSA was 1280 ± 690 µM.

In the case of `Cc1nnc(C(=O)NC(C)(C)c2nc(C(=O)NCc3ccc(F)cc3)c(O)c(=O)n2C)o1` [RAL, raltegravir, reference compound], the EC50 amounted to 0.0065 ± 0.001 µM in data set [3] (Human immunodeficiency virus 1, TZM-bl, read-out: AD8 EC50); 0.0135 ± 0.002 µM in data set [3] (Human immunodeficiency virus 1, TZM-bl, read-out: AD8 EC50 a); 0.021 ± 0.003 µM in data set [4] (Human immunodeficiency virus 1, NL43, TZM-bl, read-out: NL4-3 EC50); 0.003 ± 0.002 µM with HIV-1 NL 4.3 WT; 0.002 ± 0.003 µM in the data set with HIV-1 AD8 WT; 0.8 ± 0.012 µM in [8]. Moreover, the half-maximal effective concentration (EC50) in data set [9] was 0.46 ± 0.01 µM. Also, in [3] (TZM-bl cells), the “alteration of antiviral activity when pre-incubated with serum” value is “did not show any alteration of antiviral activity”. Besides, the half-maximal cytotoxic concentration (CC50) in data set [7] is above 20 µM.

The term EC50 denotes the concentration giving half of the maximal effect. As usually defined, the CC50 is the concentration giving 50% cytotoxicity. What is called Kd is the constant that tells how readily two partners part at equilibrium.
